Here are results for four molecules from US10604585B2, “Modulation of PTPRA to treat arthritis” (La Jolla Institute for Allergy & Immunology, priority 2014, dated 2020).

Data set [1] has as its system RA FLS. As to the kind of experiment: RA FLS induction of gene expression in response to TNF and IL-1β (qPCR, ELISA). Conditions: for TNF- and IL-1-induced production of CXCL10 / TNF- and IL-1-induced production of IL6 / TNF- and IL-1-induced production of MMP13: 50 ng/ml TNFα or 2 ng/ml IL-1β with inhibitor for 24 hr. It is filed as cell-based, human. On the procedure: FLS were obtained from the UCSD CTRI Biorepository. Each line was previously obtained from discarded synovial tissue of a different patient with RA at the time of synovectomy, as described previously (21). The diagnosis of RA conformed to American College of Rheumatology 1987 revised criteria(22). FLS were cultured in DMEM (Mediatech, Manassas, Va.) with 10% fetal bovine serum (FBS, Omega Scientific, Tarzana, Calif.), 2 mM L-glutamine, […] gentamicin, 100 units/ml of penicillin and […] streptomycin (Life Technologies, Carlsbad, Calif.) at 37° C. in a humidified 5% CO2 atmosphere. For all experiments, FLS were used between passages 4-10, and cells were synchronized in 0.1% FBS (serum-starvation media) for 48 hours prior to analysis or functional assays.
RNA was extracted using RNeasy Kits (Qiagen, Valencia, Calif.) or Trizol (Life Technologies). For lysis of FLS, adherent cells were first washed in PBS and then lysed in the culture plate. cDNA was synthesized using the SuperScript® III First-Strand Synthesis SuperMix (Life Technologies). qPCR was performed using a Roche Lightcycler 480 (Indianapolis, Ind.), with primer assays from SABiosciences/Qiagen. Reactions were measured in triplicate and data was normalized to the expression levels of the house-keeping gene glyceraldehyde 3-phosphate dehydrogenase (GAPDH) or RNA Polymerase II (RPII) (23).
(§1) FLS were treated with 2.5 uM PMO (Gene Tools, Philomath, OR) for 7 days. PMO was replaced in fresh culture medium after 3 days and in serum-starvation medium after 5 days.
Secreted human IL-6 and chemokine (C-X-C motif) ligand 10 (CXCL10) were measured using ELISAs from Biolegend (San Diego, Calif.).

Data set [2] concerns RA FLS. Particulars: reference (40); cited from earlier work.
Data set [3] has as its system RA FLS. As to the kind of experiment: Survival and apoptosis assay (Annexin V / PI, FACS). The format is cell-based, human. Particulars: sera-starvation media or in the presence of PDGF (50 ng/ml, 24 hr); FIG. 2C. On the procedure:
as §1
Following treatment with PMO, RA FLS were washed and incubated for an additional 24 hoursr in serum-starvation media. Adherent and non-adherent cells were collected and stained with Annexin V-Alexa Fluor® 647 and propidium iodide (PI) according to the manufacturer's instructions (Biolegend, San Diego, Calif.). Cell fluorescence was assessed by FACS using a BD LSR-II (BD Biosciences), and counts and percentages of live (Annexin V−PI−), early apoptotic (Annexin V+PI−), or late apoptotic/necrotic (Annexin V+PI+) cells were obtained. Data was analyzed for statistical significance using the Chi-square test for independence.

In data set [4] the test system is RA FLS. As to the kind of experiment: Spreading and adhesion assay on fibronectin-coated coverslips. It is filed as cell-based, human. Conditions: 5% FBS, FIG. 2D. On the procedure: as §1
Following treatment with PMO, equal numbers of live RA FLS were re-suspended in FLS medium containing 5% FBS and allowed to adhere onto coverslips coated with 20 μg/ml fibronectin (FN) at 37° C. for 15, 30 and 60 minutes. Cells were fixed in 4% para-formaldehyde for 5 minutes, permeabilized in 0.2% Triton X-100 for 2 minutes, and stained with 5 U/ml Alexa Fluor® 568 (AF 568)-conjugated phalloidin and 2 μg/ml Hoechst for 20 minutes (Life Technologies). Samples were imaged with an Olympus FV10i Laser Scanning Confocal Microscope (Olympus, Center Valley, Pa.). Using the FV10i acquisition software, each coverslip was separated into four nine-paneled mega-images. Each panel (1024×1024) was acquired with a 10× objective and then stitched together, through a 10% overlap, with the Olympus FluoView 1000 imaging software. Total cell number and cell areas for each panel were calculated using Image Pro Analyzer software (Media Cybernetics, Rockville, Md.).

Data set [5] concerns RA FLS. As to the kind of experiment: Western blotting of RA FLS lysates (SRC, FAK, MAPK, AKT, NF-κB signaling). The format is cell-based, human. On the procedure: as §1
Adherent cells were washed in PBS and then lysed in the culture plate in RIPA buffer (25 mM Tris-HCl pH 7.6, 150 mM NaCl, 1% NP-40, 1% sodium deoxycholate, 0.1% SDS) containing 1 mM phenylmethanesulfonyl fluoride, 10 ng/ml aprotinin, 10 μg/ml leupeptin, 10 μg/ml soybean trypsin inhibitor, 10 mM sodium orthovanadate, 5 mM sodium fluoride and 2 mM sodium pyrophosphate. Protein concentration of cell lysates was determined using the Pierce BCA Protein Assay Kit (Thermo Scientific, Rockford, Ill.).

Data set [6] has as its system RA FLS. As to the kind of experiment: Death of RA FLS on treatment with FAK inhibitor. It is filed as cell-based, human. Conditions: at the concentrations used in these experiments.
Data set [7] has as its system RA FLS. As to the kind of experiment: Western blotting of RA FLS lysates (SRC, FAK, MAPK, AKT, NF-κB signaling). Particulars: 10 μM inhibitor vs DMSO. It is filed as cell-based, human. In general terms: A western blot detects proteins with antibodies after separation by electrophoresis.
The mark [8] stands for this setting: 2.5 μM PTPRA_2 PMO for 7 d, then 50 ng/ml TNF or 2 ng/ml IL-1 for 24 hr, FIGS. 8A-8B.
Setting [9] is: 2.5 μM PMO for 7 d, then 2 ng/ml IL-1β for 24 hr, vs Ctl PMO, FIG. 1D.
[10] abbreviates: 2.5 μM PMO for 7 d, then 50 ng/ml TNF for 24 hr, vs Ctl PMO, FIG. 1D.
[11] abbreviates: RA FLS, 2.5 μM PMO for 7 d, FIG. 1D.
Where [12] appears, read: RA FLS, RPTPα knockdown with PMO, FIG. 3B, 3C.
[13] abbreviates: basal conditions, PTPRA knockdown.
The mark [14] stands for this setting: unstimulated PMO-treated RA FLS, FIG. 3D.

With `NC1(c2ccc(-c3nc4ccn5c(=O)[nH]nc5c4cc3-c3ccccc3)cc2)CCC1` [MK2206, reference compound], in the data set with RA FLS [1] (RA FLS, 2 ng/ml IL-1β with inhibitor for 24 hr, vs DMSO, qPCR, FIG. 4A), the “IL-1β-induced expression of CXCL10” value is on record as “increased”. In the data set on RA FLS [1] (RA FLS, vs DMSO, qPCR, FIG. 4A), the “TNF- and IL-1-induced production of CXCL10” value is “did not dampen”; the “TNF- and IL-1-induced production of IL6” value was “increased”; the “TNF- and IL-1-induced production of MMP13” value is on record as “did not dampen”. The “RA FLS migration and invasiveness” value in the data set with RA FLS [2] was “attenuate”.

As for “second PTPRA-targeted PMO: second PTPRA-targeted PMO of a different sequence; probably SEQ ID NO:5, 5′ GTGTCTCATCTGAAATCAAGACAAC 3′ (assignment not stated) (morpholino, cell-permeable, chemistry not fully specified)”, in the data set with RA FLS [1] (setting [8]), the “effect on CXCL10 (reduced production, protein in supernatants by ELISA)” value is recorded as “confirmed” and the “effect on IL-6 (reduced production, protein in supernatants by ELISA)” value is recorded as “confirmed”.

With “PTPRA PMO: cell-permeable antisense morpholino oligo (PMO) targeting PTPRA; probably SEQ ID NO:4, 5′ GACATTAAGGAATGCCTTACCCACA 3′ (assignment not stated) (morpholino, cell-permeable, chemistry not fully specified)”, in the data set with RA FLS [1] (setting [9]), the “RA FLS production of CXCL10 in response to IL-1β” value is given as “significantly reduced”, the “RA FLS production of IL6 in response to IL-1β” value is given as “significantly reduced”, the “RA FLS production of MMP3 in response to IL-1β” value was “significantly reduced” and the “RA FLS production of MMP13 in response to IL-1β” value was “significantly reduced”. In the data set on RA FLS [1] (setting [10]), the “RA FLS production of CXCL10 in response to TNF” value was “significantly reduced” and the “RA FLS production of MMP13 in response to TNF” value is reported as “significantly reduced”. Moreover, in the data set on RA FLS [1] (setting [11]), the “expression of IL-1β receptor (IL1R)” value is listed as “increased” and the “expression of TNF receptor (TNFRSF1A)” value is recorded as “no effect”. Moreover, the “apoptosis compared to control-treated cells” value in the data set with RA FLS [3] is recorded as “significantly increased”. The “spreading on fibronectin-coated coverslips” value in the data set with RA FLS [4] (cell area after 15, 30 and 60 min) is recorded as “impaired spreading”. Also, in the data set with RA FLS [4] (cells per field after 15 min), the “adherence of live cells to fibronectin-coated coverslips” value is recorded as “less adherent”. For the same molecule, in the data set with RA FLS [5] (RA FLS, PMO treatment, FIGS. 3B-3C), the “TNF- and IL-1β stimulated phosphorylation of AKT-S473” value was “reduced”. Also, in the data set with RA FLS [5] (setting [12]), the “TNF- and IL-1β-stimulated phosphorylation of JNK (T183/Y185)” value was “impaired”; the “TNF- and IL-1β-stimulated phosphorylation of p38-T180/Y182” value was “impaired”. For the same molecule, the “phosphorylation of FAK-Y397” value with RA FLS [5] (RA FLS, RPTPα knockdown with PMO, FIG. 3C) is recorded as “reduced”. Besides, in the data set with RA FLS [5] (setting [13]), the “proteolytic processing of NFκB subunit p100 (ratio of p52:p100)” value was “unaffected” and the “proteolytic processing of NFκB subunit p105 (ratio of p50:p105)” value is listed as “unaffected”. The “phosphorylation of SRC-Y527” value in the data set with RA FLS [5] (resting RA FLS, RPTPα knockdown with PMO, FIG. 3A) was “increased”. The “levels of IκBα following 10 minutes post-stimulation, Ctl vs PTPRA PMO-treated cells” value in the data set with RA FLS [5] (stimulation with TNF or IL-1β, FIG. 3B, 3C) is reported as “similar”. In the data set with RA FLS [5] (setting [14]), the “basal phosphorylation of IκB kinase (IKK)-αβ on Ser176/180” value is reported as “non-significant trend towards decreased” and the “basal phosphorylation of NFκB subunit p65 on Ser536” value is listed as “non-significant trend towards decreased”. Also, the “levels of IκBα protein in resting RA FLS” value in the data set with RA FLS [5] (unstimulated, PMO treatment) is “modest decrease”.

Regarding `CS(=O)(=O)c1cccc(CNc2nc(Nc3ccc4c(c3)CCC(=O)N4)ncc2C(F)(F)F)c1` [PF573228], in the data set with RA FLS [1] (RA FLS, vs DMSO, qPCR, FIG. 4A), the “TNF- and IL-1-induced production of CXCL10” value is given as “significantly decreased”; the “TNF- and IL-1-induced production of IL6” value is on record as “significantly decreased”; the “TNF- and IL-1-induced production of MMP13” value is given as “significantly decreased”. Also, the “death of RA FLS” value with RA FLS [6] is “does not cause death”. For the same molecule, the p38-T180/Y185 phosphorylation result in the data set on RA FLS [7] (50 ng/ml TNF or 2 ng/ml IL-1β for 30 min) is “no effect”. The “TNF- and IL-1β-induced phosphorylation of JNK-T183/Y185” value in the data set with RA FLS [7] (50 ng/ml TNF or 2 ng/ml IL-1β for 30 min, FIG. 4B) is “impaired”. Moreover, in the data set with RA FLS [7] (FIG. 4B), the FAK-Y397 phosphorylation entry is given as “impaired”.
